≈ marks a conversion by molar mass, not a printed value. Entries after “also recorded” stand apart in the source; their conditions may differ. Ends that are not written are not given here. Peptide text beside a SMILES is read from it.
Columns and labels:
A. baumannii = assay: Scanning electron microscopy of cell morphology; type: cell-based, Acinetobacter baumannii; conditions: 30 min treatment, peptide 1.6 or 3.125 µM as in Figure 3 legend
Procedure: A. baumannii and C. albicans were grown and treated the same way as for the membrane permeability assay. Cells were then fixed with 2.5% (v/v) glutaraldehyde in phosphate buffered saline (PBS, pH 7.4). 5 μl of the above bacterial and yeast suspensions were spotted on a silicon disk coated with 0.01% Poly-L-Lysine. The filters were washed twice with PBS and gradually dehydrated with ethanol series (30, 50, 70, 80%, and three times 100% ethanol, each for minimum 30 min). The samples were dried with a critical point dryer (K850: Quorum Technologies Ltd.), followed by 12 nm gold coating and observed under a JEOL JSM-7100F/LV scanning electron microscope.
FIGURE 3 Viability, membrane permeability and morphology of A. baumannii cells after NCR treatment (A–L) SYTO9/PI staining observed with confocal microscope, (M–X) Cell morphology observed with SEM. (A,M) untreated control, (B,N) CaNCR13, 3.125 µM, (C,O) CaNCR63, 3.125 µM, (D,P) CaNCR63_1-20, 3.125 µM, (E,Q) CaNCR63_15-34, 3.125 µM, (F,R) MsNCR443, 3.125 µM, (G,S) MsNCR463_16-35, 1.6 µM, (H,T) MsNCR463_17-30, 3.125 µM, (I,U) PsNCR349, 1.6 µM, (J,V) PsNCR349_26-50, 3.125 µM, (K,W) PsNCR349_31-50, 3.125 µM, (L,X) PsNCR352, 1.6 µM.

[1] = system: Lambda DNA/HindIII marker; assay: Gel retardation assay (DNA aggregation); type: binding; conditions: 100 ng DNA, 5 or 10 µM peptide in water, 30 min at room temperature, 1% agarose gel
Procedure: Interactions of peptides with DNA was visualized with gel retardation assay ([Hsu et al., 2005]). 100 ng Lambda DNA/HindIII marker (ThermoFisher Scientific) was incubated with 0, 5 or 10 µM synthetic NCRs or NCR derivatives in water for 30 min at room temperature and then loaded into 1% agarose gel. Electrophoresis of DNA fragments separated the mobile HindIII-digested DNA fragments while the aggregated DNA remained in the loading wells.
FIGURE 6 Aggregation of DNA by NCR peptides. Lambda HindIII digested DNA was incubated without (0) or with NCR peptides at 5 or 10 μM concentration.

[2] = system: Pseudomonas aeruginosa (ATCC 27853); type: cell-based; conditions: ATCC 27853, 3 h
How it was run: (§1)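 About 10^7 log-phase bacteria were treated for 3 h in potassium-phosphate buffer (pH 7.4) with 2-fold peptide dilutions from 25 µM downward. MBC was the lowest concentration that completely eliminated viable bacteria.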

[3] = system: Salmonella enterica (ATCC 13076); type: cell-based; conditions: ATCC 13076, 3 h
How it was run: as §1

[4] = system: Staphylococcus aureus (HNCMO112011); type: cell-based; conditions: HNCMO112011, 3 h
How it was run: as §1

[5] = system: Escherichia coli (ATCC 8739); type: cell-based; conditions: ATCC 8739, 3 h
How it was run: as §1

[6] = system: E. coli, S. enteritidis, P. aeruginosa, L. monocytogenes, S. aureus, E. faecalis, K. pneumoniae and A. baumannii; assay: Antimicrobial activity assay, spectrum over the eight tested pathogenic bacteria; type: cell-based; conditions: 3 h treatment of ~10^7 log phase bacteria, peptides 25 to 0.8 µM; active = MBC ≤25 µM
How it was run: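 Log-phase bacteria (~10^7) treated 3 h with NCR peptides in potassium-phosphate buffer pH 7.4, two-fold dilutions from 25 µM to 0.8 µM. MBC is the lowest concentration completely eliminating viable bacteria. Strains: E. faecalis ATCC 29212, S. aureus HNCMO112011, L. monocytogenes ATCC 19111, P. aeruginosa ATCC 27853, E. coli ATCC 8739, S. enterica ATCC 13076, K. pneumoniae NCTC 13440, A. baumannii ATCC 17978.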

[7] = system: Candida albicans W01 strain; assay: microbe, parasite or virus in culture; type: cell-based; conditions: C. albicans W01, two-fold dilution series; lowest concentration completely eliminating viable C. albicans; read-out: MFC, minimal fungicidal concentration against C. albicans
Description: The following pathogenic bacterial strains were used: The Gram-positive Enterococcus faecalis (ATCC 29212), Staphylococcus aureus (HNCMO112011), Listeria monocytogenes (ATCC 19111) and the Gram-negative Pseudomonas aeruginosa (ATCC 27853), Escherichia coli (ATCC 8739), Salmonella enterica (ATCC 13076), Klebsiella pneumoniae (NCTC 13440), Acinetobacter baumannii (ATCC 17978) obtained from the ATCC (United States) and NCTC (National Collection of Type Cultures–England). For the antifungal experiment the Candida albicans W01 strain ([Ördögh et al., 2014]) was used. Antimicrobial activities of peptides against ∼10^7 log phase bacteria were tested in Potassium-Phosphate Buffer (PPB, pH 7.4) as described by [Jenei et al. (2020)] while anti-Candida assays were done according to [Szerencsés et al. (2021)]. The two-fold dilution series of peptides ranged from 25 μM to 0.125 μM, while that of the antibiotics ampicillin (Merck) and miconazole (Duchefa Biochemie) from […] to 0.1 μM. The lowest concentration of the antimicrobial agents, which completely eliminated viable bacteria or C. albicans were considered as the minimal bactericidal concentration (MBC) and minimal fungicidal concentration (MFC).

[8] = system: Acinetobacter baumannii (ATCC 17978); assay: microbe, parasite or virus in culture; type: cell-based; conditions: ATCC 17978, 3 h, pH 7.4; read-out: MBC, minimal bactericidal concentration against A. baumannii
How it was run: as §1

[9] = system: Enterococcus faecalis (ATCC 29212); type: cell-based
How it was run: as §1

| Compound | Morphology of A. baumannii cells by SEM (A. baumannii) | Aggregation of HindIII-digested λ DNA (DNA retained in loading wells) [1] | MBC Pseudomonas aeruginosa [2] | MBC Salmonella enterica [3] | MBC Staphylococcus aureus [4] | MBC Escherichia coli [5] | Antibacterial spectrum over the eight tested bacterial strains [6] | MFC [7] | MBC [8] | Ability to kill E. faecalis ([9]; 3 h, ~10^7 log phase bacteria, peptides ≤25 µM) | MBC Enterococcus faecalis ([9]; ATCC 29212, 3 h) |
| --- | --- | --- | --- | --- | --- | --- | --- | --- | --- | --- | --- |
| CC[C@H](C)[C@H](NC(=O)[C@H](CCCCN)NC(=O)[C@H](CO)NC(=O)[C@H](CCCNC(=N)N)NC(=O)[C@@H]1CCCN1C(=O)[C@@H](N)CS)C(=O)N[C@@H](CCCCN)C(=O)N[C@@H](CC(=O)O)C(=O)N[C@@H](CS)C(=O)N[C@H](C(=O)N[C@@H](CCCCN)C(=O)NCC(=O)N[C@@H](Cc1ccc(O)cc1)C(=O)N[C@@H](CS)C(=O)N[C@@H](CCCNC(=N)N)C(=O)N[C@@H](CS)C(=O)N[C@H](C(=O)N[C@@H](CCCNC(=N)N)C(=O)N[C@@H](CCCCN)C(=O)N[C@@H](CCCCN)C(N)=O)C(C)C)C(C)C [CaNCR63_15-34] (H-CPRSKIKDCVKGYCRCVRKK-NH2; N-terminus assumed) | rough cell surface, lysis and flattening of the cells; also recorded: Filament-like structures | DNA remained in the wells | – | – | – | – | – | – | – | – | – |
| CC[C@H](C)[C@H](NC(=O)[C@H](CS)NC(=O)[C@H](CO)NC(=O)[C@H](CCCNC(=N)N)NC(=O)[C@H](CO)NC(=O)[C@H](Cc1ccccc1)NC(=O)[C@@H]1CCCN1C(=O)[C@H](CC(C)C)NC(=O)[C@H](Cc1ccc(O)cc1)NC(=O)[C@H](C)N)C(=O)N[C@@H](CO)C(=O)N[C@@H](CC(=O)O)C(=O)N[C@@H](CCCCN)C(=O)N[C@@H](CC(=O)O)C(=O)N[C@@H](CS)C(=O)N1CCC[C@H]1C(=O)N[C@@H](CCC(N)=O)C(=O)N[C@H](C(=O)N[C@@H](CCCCN)C(=O)N[C@@H](CC(N)=O)C(=O)N[C@@H](Cc1ccccc1)C(=O)N[C@@H](CO)C(=O)N[C@@H](C)C(=O)N[C@@H](CCCNC(=N)N)C(=O)N[C@@H](CS)C(=O)N[C@@H](CCCNC(=N)N)C(=O)N[C@@H](CCCCN)C(=O)NCC(=O)N[C@@H](Cc1ccc(O)cc1)C(=O)N[C@@H](CS)C(=O)N[C@@H](CCC(N)=O)C(=O)N[C@@H](Cc1ccccc1)C(=O)N[C@@H](CCCNC(=N)N)C(=O)N[C@H](C(=O)N[C@H](C(=O)N[C@@H](CCCNC(=N)N)C(=O)O)C(C)C)C(C)C)C(C)C [NCR471] (H-AYLPFSRSCISDKDCPQVKNFSARCRKGYCQFRVVR-OH; N-terminus assumed) | – | – | 3.125 µM (≈ 13.2 µg/mL) | 25 µM (≈ 106 µg/mL) | 12.5 µM (≈ 52.9 µg/mL) | 25 µM (≈ 106 µg/mL) | effective against five or four strains | – | – | – | – |
| CSCC[C@H](NC(=O)[C@H](CC(N)=O)NC(=O)[C@H](Cc1ccccc1)NC(=O)[C@@H](NC(=O)[C@H](CC(C)C)NC(=O)[C@H](CCCCN)NC(=O)[C@H](CCCCN)NC(=O)[C@H](CCCCN)NC(=O)[C@H](CCCCN)NC(=O)[C@H](CCCCN)NC(=O)[C@H](CC(C)C)NC(=O)[C@H](CCCCN)NC(=O)[C@H](CCCCN)NC(=O)[C@H](CCCCN)NC(=O)[C@H](Cc1c[nH]cn1)NC(=O)[C@H](CCCCN)NC(=O)[C@H](CCC(N)=O)NC(=O)[C@@H](NC(=O)[C@H](CS)NC(=O)[C@H](Cc1ccc(O)cc1)NC(=O)[C@H](CS)NC(=O)[C@@H](NC(=O)[C@H](CCCCN)NC(=O)[C@H](Cc1c[nH]c2ccccc12)NC(=O)[C@@H](N)C(C)C)[C@@H](C)O)C(C)C)[C@@H](C)O)C(N)=O [PsNCR349_26-50] (H-VWKTCYCVQKHKKKLKKKKKLTFNM-NH2; N-terminus assumed) | Filament-like structures | DNA remained in the wells | – | – | – | – | – | 3.125 µM (≈ 9.81 µg/mL) | 3.125 µM (≈ 9.81 µg/mL) | – | – |
| FIDCETVADCPTHWAYIYVCEKNKCRYHFKSGRVRPDHQKNRHNRV-OH (cysteines drawn unpaired) [NCR520] | – | – | 3.125 µM | – | 25 µM | 25 µM | effective against five or four strains | – | – | able to kill | 25 µM |

Reference: publication PMC9218685, “Legume Plant Peptides as Sources of Novel Antimicrobial Molecules Against Human Pathogens” (Frontiers in Molecular Biosciences, 2022)
